Measurements from the supplement of paper PMC10627819.

Tests used:
Experiment in all cases: fitness (endpoint OD595 vs no drug) (fraction); higher = more growth
[1] = tested on: S. aureus DSM 20231
How it was run: (§1)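 Plates with 384 wells were inoculated at OD595 0.01 using 30 µl of TSB, LB Lennox or CY, or 55 µl for S. pneumoniae. Incubation was at 37 °C, with OD595 measured every 30 min for 14 h. Fitness is the stationary-phase transition optical density over the robust mean of no-drug control wells, after first-reading background subtraction; it is capped at 1.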

[2] = tested on: S. aureus Newman
How it was run: as §1

[3] = tested on: S. pneumoniae D39V
How it was run: as §1

CC1(C)S[C@@H]2[C@H](NC(=O)[C@H](N)c3ccc(O)cc3)C(=O)N2[C@H]1C(=O)O [Amoxicillin] + N[C@@H]1CONC1=O [Cycloserine D]
fitness
Settings | first compound 0.0625 µg/mL | first compound 0.125 µg/mL | first compound 0.25 µg/mL | first compound 0.5 µg/mL
[1], partner 0.375 µg/mL | 0.579 | 0.382 | 0.0345 | 0.0039
[1], partner 0.75 µg/mL | 0.562 | 0.368 | 0.0204 | 0.0079
[1], partner 1.5 µg/mL | 0.554 | – | 0.0264 | 0.0072
[2], partner 0.375 µg/mL | 0.889 | 0.875 | 0.811 | –
[2], partner 0.75 µg/mL | 0.879 | 0.91 | 0.821 | –
[2], partner 1.5 µg/mL | 0.861 | 0.851 | 0.8 | –

CC1(C)S[C@@H]2[C@H](NC(=O)[C@H](N)c3ccc(O)cc3)C(=O)N2[C@H]1C(=O)O [Amoxicillin] + O=C(O)[C@H]1/C(=C/CO)O[C@@H]2CC(=O)N21 [Clavulanic acid]
fitness, one replicate
Settings | partner 0.03125 µg/mL | partner 0.0625 µg/mL | partner 0.125 µg/mL | partner 0.5 µg/mL | partner 1 µg/mL | partner 2 µg/mL
[2], first compound 0.0625 µg/mL | 0.895 | 0.816 | 0.768 | – | – | –
[2], first compound 0.125 µg/mL | 0.831 | 0.809 | 0.639 | – | – | –
[2], first compound 0.25 µg/mL | 0.717 | 0.628 | 0.606 | – | – | –
[3], first compound 0.006 µg/mL | – | – | – | 0.391 | 0.315 | 0.242

fitness, [3]
Settings | first compound 0.0008 µg/mL | first compound 0.0015 µg/mL | first compound 0.003 µg/mL
partner 0.5 µg/mL | 0.913 | 0.945 | 0.914
partner 1 µg/mL | 0.886 | 0.87 | 0.852
partner 2 µg/mL | 0.812 | 0.819 | 0.713

CO/N=C(\C(=O)N[C@@H]1C(=O)N2C(C(=O)[O-])=C(C[N+]3(C)CCCC3)CS[C@H]12)c1csc(N)n1 [Cefepime] + CC1(C)S[C@@H]2[C@H](NC(=O)Cc3ccccc3)C(=O)N2[C@H]1C(=O)O [Penicillin G]
fitness, [2]
Settings | first compound 0.125 µg/mL | first compound 0.25 µg/mL | first compound 0.5 µg/mL
partner 0.0195 µg/mL | 0.868 | 0.801 | 0.712
partner 0.039 µg/mL | 0.895 | 0.811 | 0.695
partner 0.078 µg/mL | 0.871 | 0.773 | 0.704

CO/N=C(\C(=O)N[C@@H]1C(=O)N2C(C(=O)[O-])=C(C[N+]3(C)CCCC3)CS[C@H]12)c1csc(N)n1 [Cefepime] + CO[C@@]12[C@H](COC(N)=O)C3=C(C(=O)C(C)=C(N)C3=O)N1C[C@@H]1N[C@@H]12 [Mitomycin C]
Settings | fitness
[1], first compound 0.125 µg/mL, partner 0.0156 µg/mL | 0.685
[1], first compound 0.125 µg/mL, partner 0.0312 µg/mL | 0.653
[1], first compound 0.125 µg/mL, partner 0.0625 µg/mL | 0.568
[1], first compound 0.25 µg/mL, partner 0.0156 µg/mL | 0.63
[1], first compound 0.25 µg/mL, partner 0.0312 µg/mL | 0.617
[1], first compound 0.25 µg/mL, partner 0.0625 µg/mL | 0.578
[1], first compound 0.5 µg/mL, partner 0.0156 µg/mL | 0.632
[1], first compound 0.5 µg/mL, partner 0.0312 µg/mL | 0.572
[1], first compound 0.5 µg/mL, partner 0.0625 µg/mL | 0.549
[2], first compound 0.125 µg/mL, partner 0.0156 µg/mL | 0.749
[2], first compound 0.125 µg/mL, partner 0.0312 µg/mL | 0.661
[2], first compound 0.125 µg/mL, partner 0.0625 µg/mL | 0.556
[2], first compound 0.25 µg/mL, partner 0.0156 µg/mL | 0.661
[2], first compound 0.25 µg/mL, partner 0.0312 µg/mL | 0.592
[2], first compound 0.25 µg/mL, partner 0.0625 µg/mL | 0.483
[2], first compound 0.5 µg/mL, partner 0.0156 µg/mL | 0.621
[2], first compound 0.5 µg/mL, partner 0.0312 µg/mL | 0.578
[2], first compound 0.5 µg/mL, partner 0.0625 µg/mL | 0.522
[3], first compound 0.007 µg/mL, partner 0.002 µg/mL | 0.88
[3], first compound 0.007 µg/mL, partner 0.004 µg/mL | 0.803
[3], first compound 0.007 µg/mL, partner 0.008 µg/mL | 0.68
[3], first compound 0.0078 µg/mL, partner 0.001075 µg/mL | 0.976
[3], first compound 0.0078 µg/mL, partner 0.00215 µg/mL | 0.924
[3], first compound 0.0078 µg/mL, partner 0.0043 µg/mL | 0.867
[3], first compound 0.014 µg/mL, partner 0.002 µg/mL | 0.859
[3], first compound 0.014 µg/mL, partner 0.004 µg/mL | 0.819
[3], first compound 0.014 µg/mL, partner 0.008 µg/mL | 0.669
[3], first compound 0.0155 µg/mL, partner 0.001075 µg/mL | 0.98
[3], first compound 0.0155 µg/mL, partner 0.00215 µg/mL | 0.931
[3], first compound 0.0155 µg/mL, partner 0.0043 µg/mL | 0.857
[3], first compound 0.028 µg/mL, partner 0.002 µg/mL | 0.716
[3], first compound 0.028 µg/mL, partner 0.004 µg/mL | 0.7
[3], first compound 0.028 µg/mL, partner 0.008 µg/mL | 0.628
[3], first compound 0.031 µg/mL, partner 0.001075 µg/mL | 0.708
[3], first compound 0.031 µg/mL, partner 0.00215 µg/mL | 0.647
[3], first compound 0.031 µg/mL, partner 0.0043 µg/mL | 0.63
